Consider 1 compound from US11315778B2, “Spray chambers and methods of using them” (PERKINELMER HEALTH SCIENCES CANADA, INC., priority 2016, dated 2022).

What all share (format): cell-based
Assay [1] relates to ovarian cancer cell line (CP70). Nature of the assay: Single cell ICP-MS of cisplatin-exposed CP70 cells (195Pt monitored). Conditions: over the course of eight hours, FIG. 21. How it is done:
A cell suspension can be nebulized by introducing the cell suspension through a nebulizer fluidically coupled to a spray chamber as described herein. The spray chamber can select individual cells and provide them to an inductively coupled plasma. As each cell enters the plasma, it is ionized, and the resulting ion burst from the intrinsic metal species is detected by a mass spectrometer. Each cell is treated the same as an individual particle. Cell concentrations can desirably be around 100,000 cell/mL to minimize coincidence—a situation where to cells are provided at the same time to the plasma.
To determine the effectiveness of detection of cisplatin using single cell ICP-MS using the spray chambers described herein, an ovarian cancer cell line (CP70) was exposed to cisplatin and monitored over time. Analyses were carried out on a PerkinElmer NexION 350 D ICP-MS with a 2 mm quartz injector and quartz torch operating with an RF power of 1600 W. A spray chamber as shown in FIG. 2 (though the spray chambers of FIGS. 3, 4 and 5A-5D could be used instead) can be used with a high efficiency concentric glass nebulizer (Meinhard) was used with the spray chamber and the NexION 350 D instrument.
Because background levels of Pt are non-existent and there are no common interferences on 195Pt, each spike represents Pt detected in an individual cell. […]

Assay [2] relates to A2780 ovarian cancer cell line. Nature of the assay: Cisplatin uptake time course, single cell ICP-MS. How it is done:
(§1) Cisplatin uptake in two ovarian cancer cell lines was evaluated using single particle ICP-MS (SP-ICP-MS). The ovarian cancer cell lines A2780 and A2780/CP70 were used in all experiments. Cells were grown in RPMI […] media (Gibco™) supplemented with 10% fetal bovine serum (FBS, Gibco™), insulin (Sigma-Aldrich™), 1-glutamine (Gibco™), and pen/strep (Gibco™) under 5% CO2 at 37° C. For serum starvation experiments, cells were plated and allowed to attach to the dishes. The media was removed and replaced with serum-free media for approximately 18 hours after which the media was replaced with regular media to begin cisplatin treatment. Cisplatin was re-suspended at 1 mg/mL in sterile saline and vigorously shaken for 30 minutes prior to treatment. Cells were treated with 30μM cisplatin for a time course where samples were collected at 1, 2, 4, and 8 hours post-treatment. For analysis, cells were washed twice with phosphate-buffered saline (PBS) and collected using the non-enzymatic cell dissociation solution Cellstripper (Corning™). Cells were centrifuged at 500×g for 10 minutes. The supernatant was discarded, and the cells were resuspended in 1 mL PBS, filtered through a 70μm nylon mesh, and quantitated by hemocytometer counting. Cells were diluted in PBS to a final concentration of 100,000 cells/mL and kept on ice until injection.
(§2) Analyses were performed with PerkinElmer's NexION® ICP-MS using the Syngistix™ Single Cell Application Software Module for data collection and processing. Instrumental conditions were as follows: sample uptake rate 0.04 mL/minute, 2.0 mm id quartz injector, 1600 Watts RF power, 0.36 L/minute nebulizer gas flow rate, 0.7 L/minute makeup gas flow rate, and a 60 second sample analysis time. A Meinhard HEN nebulizer and the spray chamber of FIG. 2 were also used (though the spray chambers of FIGS. 3, 4 and 5A-5D could be used instead). The Single Cell Sample Introduction Kit (Part No. N8150031) was used for sample introduction to the NexION. The kit consists of a high-efficiency nebulizer (Part No. N8142046) and the spray chamber designed for transport of cells to the plasma. Cells (1-100 microns) are larger than droplets which typically pass through conventional spray chambers (less than 2 microns).
(§3) Ionic platinum standards were prepared in PBS to matrix match the cell sample. A standard curve was generated using 1, 2, and 3 ppb platinum standard. Transport efficiency was determined using […] gold nanoparticles in PBS.
(§4) The cells chosen for this study are the ovarian cancer cell lines A2780 and A2780/CP70, which are good models for developing the single cell method since the molecular mechanism for resistance […]. A2780 is a cisplatin-sensitive cell line, while the A2780/CP70 line is cisplatin resistant. This resistance was developed by exposing the A2780 parental cell line to increasing doses of cisplatin. The A2780/CP70 cells developed resistance by reducing cisplatin uptake in addition to up-regulating DNA repair. We explored cisplatin uptake by performing a time course experiment to analyze how the distribution of cisplatin uptake changed over time within the cellular population. Both cell lines were treated for 1, 2, 4, and 8 hours with 30μM cisplatin. […] After the data is collected, the mass distribution peak can be integrated, as shown in FIG. 30C (frequency vs mass(ag)).
(§5) The time course data was summarized by fitting each histogram with a Log Normal curve. The mean intensity was determined for each time point and plotted to show the cisplatin uptake difference between A2780 and A2780/CP70 cells over time, as shown in FIG. 33.

Assay [3] concerns A2780/CP70 ovarian cancer cell line. Nature of the assay: Cisplatin uptake time course, single cell ICP-MS. How it is done:
as §1, §2, §3, §4, §5

Consider `N.N.[Cl][Pt][Cl]` [cisplatin], for which the “Pt content within cells (cisplatin uptake)” value in assay [1] is on record as “increases over time”. The uptake of platinum result in assay [2] (A2780, 30μM cisplatin, one hour of treatment) is “very little uptake of platinum”; in assay [3] (A2780/CP70, 30μM cisplatin, one hour of treatment), “very little uptake of platinum”. Also, the “effect of serum starvation on cisplatin uptake” value in assay [2] (A2780, serum-starved vs control cells, FIGS. 34A and 34B) is given as “no effect on the uptake of cisplatin”; in assay [3] (A2780/CP70, serum-starved vs control cells, FIGS. 34A and 34B), “no effect on the uptake of cisplatin”. Besides, the “cisplatin uptake over time (mean intensity of Log Normal fit)” value in assay [2] (A2780 vs A2780/CP70, 30μM cisplatin, 1-8 hours, FIG. 33) is given as “increased cisplatin uptake”. Further, the “population of cells by cisplatin content, comparison of cell lines” value in assay [2] (A2780 vs A2780/CP70, 30μM cisplatin, eight hours) is “increased population of cells with more cisplatin than A2780/CP70”.
